Measured values taken from patent publication US20170128409A1, “PROPHYLACTIC OR THERAPEUTIC AGENT FOR ATTENTION DEFICIT/HYPERACTIVITY DISORDER” (Takeda Pharmaceutical Company Limited, priority 2008, published 2017).

Tests used:
SHR-SP rats = experiment: 2-lever discriminative reaction task in SHR-SP rats (ADHD model); type: in vivo, rat
Excerpt: A. Test method (1) While spontaneously hypertensive rat (SHR) is a hypertension model rat widely used in research, this lineage not only develops hypertension but also behaves similarly in the juvenile stage to patients with attention deficit/hyperactivity disorder (attention-deficit/hyperactivity disorder: ADHD), as evidenced by disrupted retention of attention and the like (Sagvolden T, Russell V A, Aase H, Johansen E B, Farshbaf M. (2005): Rodent models of attention-deficit/hyperactivity disorder. Biol Psychiatry. 57(11): 1239-47). Particularly, SHR-SP (subtype of SHR) in the juvenile stage is recently recognized as an animal model of developmental disorder such as ADHD by those of ordinary skill in the art (Ueno K I, Togashi H, Mori K, Matsumoto M, Ohashi S, Hoshino A, Fujita T, Saito H, Minami M, Yoshioka M. (2002): Behavioural and pharmacological relevance of stroke-prone spontaneously hypertensive rats as an animal model of a developmental disorder. Behav Pharmacol. 13(1): 1-13).
Thus, those of ordinary skill in the art consider that SHR-SP is suitable as an ADHD model.
Therefore, the inventor employed the SHR-SP rats and evaluated the effect of compound A on ADHD.
(2) The test was performed using 24 SHR-SP rats and 12 WKY rats (both 5-week-old; provided by CLEA Japan, Inc.). They were reared at 12 hr light-dark cycle (light was on at 7:00 am) and allowed free access to water. The feeding was restricted such that the body weight was 85% of that by free food ingestion. All rats were subjected to handling before the test.
As a test apparatus, 4 Skinner boxes each equipped with a 45 mg feed pellet feeding tray (reward delivery opening) in the center of the wall and a cue lamp and a retractable lever set on the sides of the tray were set (see FIG. 1).
(3) The rats were trained for 2 days for lever pressing-feeding associative learning. One session consisted of 30 trials or 900 sec. Two levers were presented, pressing either lever affords feed pellets (reinforcer), and a buzzer sound indicating correctness was made. Solely in the training on the initial day, feed pellets were automatically given with a buzzer every 45 seconds. All animals reached the criteria obtaining 30 feed pellets within 300 sec. (4) In the test session, a 2-lever discriminative reaction task was performed. In the 2-lever discriminative reaction task, 1 session consisted of 30 sets of ITI (inter-trial interval) for 30 sec and reaction latency for 30 sec maximum. The house lamp was turned on at the start of the session to indicate both retractable levers. The lever pressing reaction of the animal was sequentially recorded while indicating the levers until completion of 30 trials. […]

SHR-SP = details: at a low dose; cited from earlier work

For `CCC(=O)NCC[C@@H]1CCc2ccc3c(c21)CCO3` [compound A, (S)—N-[2-(1,6,7,8-tetrahydro-2H-indeno[5,4-b]furan-8-yl)ethyl]propionamide], the “transition of total number of reaction during trials (index of impulsivity)” value (SHR-SP rats; 1.0 mg/kg oral daily, up to session 4, positive drug group vs control group, FIG. 5) was “similar”, the “correct answer latency (reaction latency when correct answer was selected) (index of motivation, sedation and the like)” value (SHR-SP rats; 1.0 mg/kg oral, 14 consecutive days, positive drug group vs control group, FIG. 7) was “did not show much difference” and the “number of correct answers (number of reward obtained) (index of attentional deficit)” value (SHR-SP rats; 1.0 mg/kg oral, 14 consecutive days, positive drug group vs control group, p=0.09, FIG. 6) was “tended to increase”. The “total number of reaction during trials (index of impulsivity)” value (SHR-SP rats; 1.0 mg/kg oral, 14 consecutive days, session 11, positive drug group vs control group, t-test p=0.09, FIG. 5) was “tended to decrease”.

In the case of `COC(=O)C(c1ccccc1)C1CCCCN1` (centres unmarked) [methylphenidate], the “effect on abnormal behaviors of SHR-SP” value (SHR-SP) is listed as “improving effect”.
